We go through 24 compounds from ChEMBL document CHEMBL5096192, “Recent advancements in anti-leishmanial research: Synthetic strategies and structural activity relationships” (Eur J Med Chem, 2021).

In brackets after ≈: the same amount, converted by molar mass. Some results are limits rather than exact numbers.

Data set [1] is described as follows: Cytotoxicity against mouse J774.A1 cells assessed as reduction in cell viability incubated for 48 hrs by MTT assay. It is filed as toxicity, cell-based. Background: Tetrazolium dyes change colour on reduction, which living cells bring about.
Data set [2] deals with Leishmania amazonensis. Put plainly: Antileishmanial activity against Leishmania amazonensis IFLA/Br/67/PH8 intracellular amastigotes infected in BALB/c mouse peritoneal macrophages assessed as reduction in intracellular amastigotes incubated for 72 hrs by fluorometric analysis. As to conditions: IFLA/Br/67/PH8, 72 h. It is filed as functional, organism-based.
Data set [3] relates to Leishmania donovani. Put plainly: Antileishmanial activity against promastigote form of wild-type Leishmania donovani MHOM/80/IN/Dd8 assessed as inhibition of parasite growth incubated for 48 hrs by MTT assay. It is filed as functional, organism-based. As to conditions: MHOM/80/IN/Dd8, 48 h.
For data set [4], the system named is Leishmania mexicana. Put plainly: Antileishmanial activity against mammalian stage Leishmania mexicana MNYC/BZ/62/M379 axenic amastigotes assessed as inhibition of […] incubated for 24 hrs by alamar blue assay. It counts as functional. As to conditions: read-out: ED50 (the source's name). On the technique in general: The colour change of resazurin is a common sign of viable cells or microbes.

Data set [5] relates to Leishmania amazonensis. As to the kind of experiment: Antileishmanial activity against amastigote form of Leishmania amazonensis (MHOM/BR/71973/M2269) assessed as parasite growth inhibition by MTT assay. It counts as functional, organism-based.
Data set [6] deals with Leishmania amazonensis. As to the kind of experiment: Antileishmanial activity against promastigote form of Leishmania amazonensis (MHOM/BR/71973/M2269) assessed as parasite growth inhibition by MTT assay. It counts as functional, organism-based.
In data set [7] the test system is Leishmania mexicana. Put plainly: Inhibition of recombinant Leishmania mexicana CPB2.8 delta CTE at 20 uM.
Data set [8] has as its system Leishmania panamensis. Put plainly: Antileishmanial activity against Leishmania panamensis MHOM/CO/87/UA140pIR-GFP intracellular amastigotes infected in human U-937 cells assessed as parasite growth inhibition measured after 72 hrs by flow cytometry analysis. It counts as functional, organism-based. The conditions noted are these: U-937, 72 h. In general terms: Flow cytometry measures light scatter and fluorescence of single cells or particles in a stream.

The next data set deals with Trypanosoma cruzi. As to the kind of experiment: Antitrypanosomal activity against Trypanosoma cruzi Tulahuen intracellular amastigotes transfected with beta-galactosidase infected in human U-937 cells assessed as viability of intracellular amastigotes measured after 72 hrs by spectrophotometry. It counts as functional, organism-based. The conditions noted are these: U-937, 72 h.

For data set [9], the system named is Leishmania braziliensis. Put plainly: Antileishmanial activity against promastigote form of Leishmania braziliensis MHOM/CO/88/301-EGFP infected in human U-937 cells assessed as parasite growth inhibition measured after 72 hrs by flow cytometer analysis. It is filed as functional, organism-based. The conditions noted are these: U-937, 72 h.
Data set [10] has as its system Leishmania panamensis. Put plainly: Antileishmanial activity against promastigote form of Leishmania panamensis MHOM/CO/87/UA140-EGFP infected in human U-937 cells assessed as parasite growth inhibition measured after 72 hrs by flow cytometer analysis. The conditions noted are these: U-937, 72 h. It is filed as functional, organism-based.
The subject of data set [11] is Leishmania major. Put plainly: Antileishmanial activity against Leishmania major JISH118 promastigote infected in human THP-1 cells assessed as parasite growth inhibition measured after 48 hrs by Giemsa staining based analysis. The conditions noted are these: JISH118, THP-1, 48 h. It is filed as functional, organism-based.
For data set [12], the system named is Leishmania braziliensis. Put plainly: Antileishmanial activity against promastigote form of Leishmania braziliensis MHOM/BR/75/M2904 promastigotes assessed as parasite growth inhibition incubated for 48 hrs by resazurin assay. It counts as functional, organism-based. As to conditions: MHOM/BR/75/M2904, 48 h.
The subject of data set [13] is Leishmania infantum. Put plainly: Antileishmanial activity against Leishmania infantum MHOM/MA/67/ITMAP263 intracellular amastigotes infected in primary peritoneal mouse macrophages assessed as inhibition of parasite growth by cell based assay. It counts as functional, organism-based. The conditions noted are these: MHOM/MA/67/ITMAP263, Peritoneal macrophage.
The test system of data set [14] is Leishmania infantum. Put plainly: Antileishmanial activity against promastigote form of Leishmania infantum MHOM/BR/70/BH46 promastigote assessed as parasite growth inhibition incubated for 72 hrs by Neubauer chamber analysis. It is filed as functional, organism-based. As to conditions: MHOM/BR/70/BH46, 72 h.
Data set [15] is described as follows: Selectivity index, ratio of CC50 for cytotoxicity against human THP1 cells to IC50 for antileishmanial activity against promastigote form of Leishmania donovani. As to conditions: read-out: Ratio CC50/IC50. It counts as toxicity, cell-based.
Data set [16] has as its system Leishmania donovani. As to the kind of experiment: Antileishmanial activity against promastigote form of Leishmania donovani assessed as inhibition of promastigote growth incubated for 48 hrs by Alamar blue assay. It counts as functional, organism-based.
In data set [17] the test system is Leishmania amazonensis. Put plainly: Antileishmanial activity against promastigote form of Leishmania amazonensis (MHOM/BR/75/Josefa) assessed as inhibition of parasite growth measured after 72 hrs by Neubauer counting chamber based analysis. It is filed as functional, organism-based.
The test system of data set [18] is Leishmania infantum. Put plainly: Antileishmanial activity against promastigote form of Leishmania infantum BH 46 assessed as parasite growth inhibition measured after 48 hrs by Celltiter-Glo assay. It is filed as functional, organism-based. The conditions noted are these: BH 46, 48 h.
The nature of data set [19]: Cytotoxicity against BALB/c mouse peritoneal macrophages assessed as reduction in cell viability measured after 48 hrs by luminescence based CellTiter-Glo assay. It is filed as toxicity, Peritoneal macrophage.
For data set [20], the system named is Leishmania amazonensis. As to the kind of experiment: Antileishmanial activity against Leishmania amazonensis (MHOM/BR/71973/M2269) intracellular amastigotes infected in mouse peritoneal macrophages assessed as parasite growth inhibition incubated for 24 hrs by Giemsa staining based light microscopy analysis. It is filed as functional, organism-based. As to conditions: MHOM/BR/71973/M2269, Peritoneal macrophage.

For data set [21], the system named is Leishmania amazonensis. As to the kind of experiment: Antileishmanial activity against promastigote form of Leishmania amazonensis (MHOM/BR/71973/M2269) assessed as parasite growth inhibition measured after 72 hrs by Neubauer counting chamber based analysis. The conditions noted are these: MHOM/BR/71973/M2269, 72 h. It is filed as functional, organism-based.

The subject of data set [22] is Mycobacterium tuberculosis. As to the kind of experiment: Antimycobacterial activity against Mycobacterium tuberculosis H37Rv ATCC 27294 assessed as inhibition of bacterial growth and measured at 7 to 14 day by broth microdilution assay. It is filed as functional. As to conditions: time 7-14 day.
The subject of data set [23] is Leishmania major. Put plainly: Antileishmanial activity against Leishmania major (MHOM/IR/-173) promastigotes assessed as inhibition of parasite growth incubated for 72 hrs by alamar blue staining based analysis. It is filed as functional, organism-based. The conditions noted are these: MHOM/IR/-173, 72 h.

On to `O=C1c2ccccc2C(=O)N1CCn1cc(-c2ccccc2)nn1`, for which the CC50 – broadly, the concentration that lowers cell viability or growth by half – at 48 h in [1] was more than 500 µM. Regarding `CCCCCCCCCCn1cc(COCC2CO2)[n+](C)n1` (centres undefined), the IC50 (usually the concentration at which inhibition is half-maximal) with Leishmania amazonensis [2] is 7.61 µM. Take `O=[N+]([O-])c1ccc(COc2ccc(-c3nc4ccccc4[nH]3)cc2)cc1`: the IC50 in the data set on Leishmania donovani [3] worked out at 68 µM. Turning to `COC(=O)[C@]12CCC(C)(C)C[C@H]1C1=CC[C@@H]3[C@@]4(C)CC[C@@H]5O[C@H](c6ccccc6C(=O)O)OC[C@@]5(C)[C@@H]4CC[C@@]3(C)[C@]1(C)CC2`, the EC50 with Leishmania mexicana [4] amounted to 5 µM. As for `CCCc1cc(OC)c2oc(=O)c(C(=O)c3ccc([N+](=O)[O-])cc3)cc2c1`, the figures for the IC50 in the data set with Leishmania amazonensis [5] and with Leishmania amazonensis [6] were 12 µM and 3.53 µM, respectively. Take `Cc1cc(C)cc(S(=O)(=O)n2c(SCC(=O)Nc3ccccc3)nc3ccccc32)c1`: in the data set on Leishmania mexicana [7], the inhibition – broadly, the drop in the measured response relative to a control, in per cent – was 97%. Regarding `CC(CCCCCCC[n+]1ccn(C)c1)Oc1ccc(C(=O)/C=C/c2ccco2)cc1` (centres undefined), the EC50 with Leishmania panamensis [8] worked out at 0.78 µM; with Trypanosoma cruzi, 0.66 µM.

`O=C(N/N=C1\CCOc2ccccc21)c1ccccc1`: the EC50 with Leishmania braziliensis [9] was 12.1 µg/mL (≈ 45.4 µM); in the data set with Leishmania panamensis [10] it was 20.1 µg/mL (≈ 75.5 µM). As for `Cc1cccc(Nc2nnc(-c3ccc(C(c4c[nH]c5ccccc45)c4c[nH]c5ccccc45)cc3)s2)c1`, in the data set with Leishmania major [11], the IC50 was 0.7 µM. Take `CC(C)=CCC1=C(OC(=O)CCc2cn(-c3ccc(C)cc3)nn2)C(=O)c2ccccc2C1=O`: in the data set on Leishmania braziliensis [12], the IC50 stood at 15.9 µM. `CC(C)=CC1=C(OC(=O)CCc2cn(-c3ccc(C)cc3)nn2)C(=O)c2ccccc2C1=O`: the IC50 in the data set on Leishmania braziliensis [12] was 27.1 µM. `CC1(C)CC[C@]2(NC(=O)N3CCC[C@H]3C(=O)O)CC[C@]3(C)C(=CC[C@@H]4[C@@]5(C)CC[C@@H]6OC(C)(C)OC[C@@]6(C)[C@@H]5CC[C@]43C)[C@@H]2C1`: the EC50 in the data set on Leishmania mexicana [4] is 4 µM. Consider `CCCCCCCCCCCCCCCCOP(=O)([O-])OCC[N+](C)(C)C` [MILTEFOSINE], for which the half-maximal inhibitory concentration (IC50) with Leishmania infantum [13] was 4.5 µM; with Leishmania donovani [3], 24.2 µM. Turning to `CCCCC(CCCCCCC[n+]1ccn(C)c1)Oc1ccc(C(=O)/C=C/c2ccco2)cc1` (centres undefined), the EC50 is 2.12 µM in the data set with Leishmania panamensis [8] and 0.72 µM in the data set on Trypanosoma cruzi. For the compound `O=c1ccoc2cc(OCCCCCCCCCOc3cccc4cccnc34)ccc12`, in the data set on Leishmania panamensis [8], the EC50 was found to be 6.11 µg/mL. As for `CCc1ccc(NC(=S)N/N=C/c2c[nH]c3c(C)cc(Br)cc23)cc1`, in the data set with Leishmania infantum [14], the half-inhibitory concentration (IC50) was 4.36 µM. Regarding `CC(C)CCN1C(=O)C=CC1=O`, the selectivity ratio in data set [15] is more than 781. For the same compound, in the data set with Leishmania donovani [16], the IC50 was less than 0.0128 µg/mL. In the case of `CC1=CC[C@@H](C(C)(C)NC(=S)N/N=C/c2cccc([N+](=O)[O-])c2)CC1`, the IC50 in the data set with Leishmania amazonensis [17] worked out at 2.4 µM. Take `C/C(=N\Nc1nc(-c2ccc(Br)cc2)cs1)c1ccccn1`: the IC50 with Leishmania infantum [18] was 3.12 µM. For the same compound, in data set [19], the CC50 at 48 h stood at 2.95 µM. As to `CC(C)COc1ccc2c(-c3ccccc3)cc(=O)oc2c1`, the IC50 came out at 58.1 µM in the data set with Leishmania amazonensis [20] and 21.4 µM with Leishmania amazonensis [21]. With `Clc1cccc(Nc2nnc(-c3ccc(C(c4c[nH]c5ccccc45)c4c[nH]c5ccccc45)cc3)s2)c1`, in the data set on Leishmania major [11], the IC50 was determined as 0.7 µM. Turning to `OCc1cn(-c2cc(O)ccc2O)nn1`, the MIC90 (commonly the lowest concentration that inhibits either 90% of growth or 90% of the strains tested, depending on the study) in data set [22] came to 16 µM (≈ 3.32 µg/mL). Further, in the data set on Leishmania major [23], the IC50 is 23 µM. `Cn1cc[n+](CCCOc2ccc(C(=O)/C=C/c3ccco3)cc2)c1`: the EC50 in the data set on Leishmania panamensis [8] stood at 4.65 µM.

Turning to `Cc1cc(N2C(=O)C(Cl)=C(Cl)C2=O)ccc1[N+](=O)[O-]`, the selectivity ratio in data set [15] is more than 781. The IC50 in the data set on Leishmania donovani [16] was less than 0.0128 µg/mL.
